Measured values reported in patent US20070148258A1, “Dialysates and methods and systems related thereto” (priority 2003, published 2007).
Read-outs that look alike come from different tables or passages of the source.

Assays:
[1] = 4 L PPi in physiologic saline, 400 ml/min, dialysate without calcium 800 ml/min, 2.1 m^2 cellulose acetate membrane
Protocol: FIG. 2 is an exemplary graph illustrating the results of in vitro dialysis of pyrophosphate. […] The concentration of pyrophosphate was measured at the times indicated. The line represents a single exponential fit.
(§1) Several studies were undertaken to determine the extent of PPi removal with dialysis. […] In 17 patients, some of whom were included in the predialysis data, plasma PPi concentration was measured before and after dialysis (FIG. 3).

injured aortas = tested on: injured aortas
Protocol: Injured aortas were incubated for 6 days in DMEM containing 3.8 mM PO4^−3 and varying concentrations of pyrophosphate. Results are means of at least 4 aortic rings.

[2] = human, in vivo
Protocol: To determine whether PPi metabolism is altered in hemodialysis patients, plasma levels and dialytic clearance of PPi were measured in stable hemodialysis patients. Predialysis plasma samples were obtained from 15 patients in an outpatient dialysis unit and from 23 inpatients. The inpatients were clinically stable and were admitted for transplant evaluation or for dialysis access problems.

aortic cultures = conditions: based on rate of hydrolysis of [32P]pyrophosphate
[3] = human, in vivo; remark: listed apart in the source
Protocol: Samples were drawn immediately before and immediately after dialysis from the predialyzer tubing. The lines to the left and right indicate the mean values before and after dialysis respectively.
as §1
Dialysate was collected during 4 treatments in 4 different patients order to measure the total amount of PPi removed.

normal aortas = test: Calcification of normal aortas cultured in high-PO4 medium with added enzymes; assay type: cell-based, rat; conditions: enzyme added to culture in DMEM with 3.8 mM PO4 (inorganic pyrophosphatase 12-20 units/ml, 9 days)

| Molecule | In vitro dialyzer clearance of PPi [1] | Inhibition of calcification in injured aortas (injured aortas; 2.5 M pyrophosphate, 6 days in DMEM with 3.8 mM PO4) | Concentrations at which inhibition of vascular calcification occurs in vitro (injured aortas; concentrations normally present in human plasma) | Concentration that maximally inhibited calcification in injured aortas (injured aortas; cultured rat aortas) | Mean plasma [PPi] lower in hemodialysis patients than in normal subjects [2] | Estimated pyrophosphate concentration 3 days after adding (aortic cultures; 5 μM added) | Estimated pyrophosphate concentration 3 days after adding (aortic cultures; 10 μM added) | Estimated pyrophosphate concentration 3 days after adding (aortic cultures; 30 μM added) | Decrease of plasma PPi concentration after dialysis, range [3] | Effect on calcification of normal aortas (normal aortas) |
| --- | --- | --- | --- | --- | --- | --- | --- | --- | --- | --- |
| O=P(O)(O)OP(=O)(O)O [pyrophosphate] | 36% | no inhibition | 3 to 5 µM | approximately 3 μM | 31% | 18 µM | 3.1 µM | 7.9 µM | 4-59% |  |
| Alkaline phosphatase |  |  |  |  |  |  |  |  |  | induced calcification |
